Assay results taken from patent publication US20240050576A1, “METHODS AND COMPOUNDS FOR THE TREATMENT OF GENETIC DISEASE” (Design Therapeutics, Inc., priority 2020, published 2024).

The compounds below were run on human FXN (assay: FXN mRNA expression by qRT-PCR in GM15850 cells after 48 hr compound treatment). Details: GM15850 cells, 48 hr incubation, hFXN normalized to hGAPDH; read-out: EC50 WT (nM, 48 hr).
Type: cell-based
Experimental: Cell culture: Cells were cultured in RPMI1640 medium+15% FBS. Cells were maintained at a density between 2e5/mL and 1e6/mL. Cells were centrifuged, resuspended in fresh medium, counted and plated at 150,000 cells per well in 100 uL in a non-coated, flat bottom tissue culture plate.
Compound treatment: 10 mM stock solution of FA GeneTAC was diluted 1:10 in DMSO followed by a 1:100 dilution in growth medium. […] Compound was then diluted at a 1:3 ratio into growth medium containing 0.01% DMSO. 5-point, 3-fold dose response curve was generated. 11 μL of 10× compound was added to wells containing 100 μL cell suspension of GM15850. 11 μL growth medium containing 0.01% DMSO was added to all wells not treated with FA GeneTAC. Cells were allowed to incubate for 48 hrs prior to cell lysis using guanidine isothiocyanate solution.
RNA isolation: Total RNA was isolated and purified in 384-well column filter plates using chaotropic salt.
qRT-PCR: qRT-PCR reactions were assembled using AgPath-ID reagents (Thermo Fisher) using 6 uL mastermix and 4 μL RNA. qRT-PCR TaqMan primer probe sets against human FXN (Assay ID Hs01075496_m1) and human GAPDH (Assay ID Hs00266705_g1) were used to measure the intended targets. qRT-PCR was run on the ThermoFisher QuantStudio 6 PRO instrument using the manufacturer's recommended cycling conditions.
Data analysis: qPCR data was analyzed using Thermo Fisher Design and Analysis software. Data was exported to Excel and hFXN expression was normalized to hGAPDH expression.

How did the EC50 turn out when `CC(=O)N1c2ccc(-c3ccc(C(=O)NCCOCCOCCOCCOCCOCCOCCOCCOCCNC(=O)c4nc(NC(=O)CCNC(=O)c5cc(NC(=O)c6nc(NC(=O)CCNC(=O)c7cc(NC(=O)c8nc(NC(=O)CCNC(=O)[C@H](CCCNC(=N)N)NC(=O)[C@@H](N)CCCNC(=N)N)cn8C)cn7C)cn6C)cn5C)cn4C)cc3)cc2[C@H](Nc2ccc(Cl)cc2)C[C@@H]1C` [Compound 90] was run?
The EC50 was 100 to 500 nM.

Same assay, conditions: Homo sapiens, GM15850, 48 h, read-out: EC50 WT (nM, 48 hr)

How did the EC50 turn out when `Cc1sc2c(c1C)C(c1ccc(Cl)cc1)=N[C@@H](CC(=O)Nc1ccc(OCCOCCOCCNC(=O)[C@H](CCCNC(=N)N)NC(=O)[C@H](CCCNC(=N)N)NC(=O)CCOCCOCCOCCNC(=O)CCNC(=O)c3nc(NC(=O)CCNC(=O)c4cc(NC(=O)c5nc(NC(=O)CCNC(=O)c6cc(NC(=O)c7nccn7C)cn6C)cn5C)cn4C)cn3C)cc1)c1nnc(C)n1-2` [Compound 99] was run?
The EC50 was under 100 nM.

Same assay, conditions: Homo sapiens; GM15850 cells, 48 hr incubation, hFXN normalized to hGAPDH; read-out: EC50 WT (nM, 48 hr)

With `Cc1sc2c(c1C)C(c1ccc(Cl)cc1)=N[C@@H](CC(=O)Nc1cccc(OCCOCCOCCOCCOCCOCCOCCOCCOCCNC(=O)CCNC(=O)c3nc(NC(=O)CCNC(=O)c4cc(NC(=O)c5nc(NC(=O)CCNC(=O)c6cc(NC(=O)c7nccn7C)cn6C)cn5C)cn4C)cn3C)c1)c1nnc(C)n1-2` [Compound 65] as the compound, how does the EC50 read?
Its EC50 is 100 to 500 nM.

Which EC50 does the source give for `CC(=O)N1c2ccc(-c3ccc(C(=O)NCCOCCOCCOCCOCCOCCOCCOCCOCCNC(=O)c4cc(NC(=O)c5nc(NC(=O)CCNC(=O)c6cc(NC(=O)c7nc(NC(=O)CCNC(=O)COCCOCCOCCN8CCN(CC9CCNCC9)CC8)cn7C)cn6C)cn5C)cn4C)cc3)cc2[C@H](Nc2ccc(Cl)cc2)C[C@@H]1C` [Compound 73] here?
Its EC50 is over 500 nM.

How did the EC50 turn out when `CC(=O)N1c2ccc(-c3ccc(C(=O)NCCOCCOCCOCCOCCOCCOCCOCCOCCNC(=O)c4cc(NC(=O)c5nc(NC(=O)CCNC(=O)c6cc(NC(=O)c7nc(NC(=O)CCNC(=O)[C@H](CCCNC(=N)N)NC(=O)[C@@H](N)CCCNC(=N)N)cn7C)cn6C)cn5C)cn4C)cc3)cc2[C@H](Nc2ccc(Cl)cc2)C[C@@H]1C` [Compound 75] was run?
Its EC50 is over 500 nM.

Which EC50 does the source give for `CC(=O)N1c2ccc(-c3ccc(C(=O)NCCOCCOCCOCCOCCOCCOCCOCCOCCNC(=O)c4nc(NC(=O)CCNC(=O)c5cc(NC(=O)c6nc(NC(=O)CCNC(=O)c7cc(NC(=O)c8nc(NC(=O)CCNC(=N)N)cn8C)cn7C)cn6C)cn5C)cn4C)cc3)cc2[C@H](Nc2ccc(Cl)cc2)C[C@@H]1C` [Compound 86, N-[5-([2-[(2-[[26-([4-[(2S,4R)-1-acetyl-4-[(4-chlorophenyl)amino]-2-methyl-3,4-dihydro-2H-quinolin-6-yl]phenyl]formamido)-3,6,9,12,15,18,21,24-octaoxahexacosan-1-yl]carbamoyl]-1-methylimidazol-4-yl)carbamoyl]ethyl]carbamoyl)-1-methylpyrrol-3-yl]-4-[3-([4-[4-(3-carbamimidamidopropanamido)-1-methylimidazole-2-amido]-1-methylpyrrol-2-yl]formamido)propanamido]-1-methylimidazole-2-carboxamide] here?
Its EC50 is over 500 nM.

With `CC(=O)N1c2ccc(-c3ccc(C(=O)NCCOCCOCCOCCOCCOCCOCCOCCOCCNC(=O)c4nc(NC(=O)CCNC(=O)c5cc(NC(=O)c6nc(NC(=O)CCNC(=O)c7cc(NC(=O)c8nc(NC(=O)CCNC(=O)COCCOCCOCCNC(=N)N)cn8C)cn7C)cn6C)cn5C)cn4C)cc3)cc2[C@H](Nc2ccc(Cl)cc2)C[C@@H]1C` [Compound 87] as the compound, how does the EC50 read?
Its EC50 is 100 to 500 nM.

Which EC50 does the source give for `CC(=O)N1c2ccc(-c3ccc(C(=O)NCCOCCOCCOCCOCCOCCOCCOCCOCCNC(=O)c4nc(NC(=O)CCNC(=O)c5cc(NC(=O)c6nc(NC(=O)CCNC(=O)c7cc(NC(=O)c8nc(NC(=O)CCNC(=O)COCCOCCOCCN9CCN(CC%10CCNCC%10)CC9)cn8C)cn7C)cn6C)cn5C)cn4C)cc3)cc2[C@H](Nc2ccc(Cl)cc2)C[C@@H]1C` [Compound 88] here?
Its EC50 is over 500 nM.

With `CC(=O)N1c2ccc(-c3ccc(C(=O)NCCOCCOCCOCCOCCOCCOCCOCCOCCNC(=O)c4nc(NC(=O)CCNC(=O)c5cc(NC(=O)c6nc(NC(=O)CCNC(=O)c7cc(NC(=O)c8nc(NC(=O)CCNC(=O)COCCOCCOCCOCCOCCOCCOCCOCCOCCOCCOCCOCCOCCOCCOCCN)cn8C)cn7C)cn6C)cn5C)cn4C)cc3)cc2[C@H](Nc2ccc(Cl)cc2)C[C@@H]1C` [Compound 89] as the compound, how does the EC50 read?
The EC50 was over 500 nM.

For `COc1ccc2c(c1)C(c1ccc(Cl)cc1)=N[C@@H](CC(=O)Nc1ccc(OCCOCCOCCNC(=O)[C@H](CCCNC(=N)N)NC(=O)[C@H](CCCNC(=N)N)NC(=O)CCOCCOCCOCCNC(=O)CCNC(=O)c3nc(NC(=O)CCNC(=O)c4cc(NC(=O)c5nc(NC(=O)CCNC(=O)c6cc(NC(=O)c7nccn7C)cn6C)cn5C)cn4C)cn3C)cc1)c1nnc(C)n1-2` [Compound 100], which EC50 is on record?
Its EC50 is 100 to 500 nM.

For `Cc1sc2c(c1C)C(c1ccc(Cl)cc1)=N[C@@H](CC(=O)NC1CCN(CCOCCOCCOCCOCCOCCC(=O)NCCCN(CCCNC(=O)CCNC(=O)c3nc(NC(=O)CCNC(=O)c4cc(NC(=O)c5nc(NC(=O)CCNC(=O)c6cc(NC(=O)c7nccn7C)cn6C)cn5C)cn4C)cn3C)CC(F)(F)F)CC1)c1nnc(C)n1-2` [Compound 101], which EC50 is on record?
The EC50 was 100 to 500 nM.

`Cc1sc2c(c1C)C(c1ccc(Cl)cc1)=N[C@@H](CC(=O)Nc1ccc(OCCOCCOCCOCCOCCOCCOCCOCCOCCNC(=O)CCNC(=O)c3nc(NC(=O)CCNC(=O)c4cc(NC(=O)c5nc(NC(=O)CCNC(=O)c6cc(NC(=O)c7nccn7C)cn6C)cn5C)cn4C)cn3C)nc1)c1nnc(C)n1-2` [Compound 102] was tested. Which EC50 did it give?
Its EC50 is under 100 nM.

Which EC50 does the source give for `Cc1sc2c(c1C)C(c1ccc(Cl)cc1)=N[C@@H](CC(=O)Nc1cncc(OCCOCCOCCOCCOCCOCCOCCOCCOCCNC(=O)CCNC(=O)c3nc(NC(=O)CCNC(=O)c4cc(NC(=O)c5nc(NC(=O)CCNC(=O)c6cc(NC(=O)c7nccn7C)cn6C)cn5C)cn4C)cn3C)c1)c1nnc(C)n1-2` [Compound 103] here?
The EC50 was under 100 nM.
